Patent US10239873B2, “7-azaindole or 4,7-diazaindole derivatives as IKKϵ epsilon and TBK1 inhibitor and pharmaceutical composition comprising same” (GREEN CROSS CORPORATION, priority 2015, dated 2019)

Legend:
TBK1 = biological target: T1, TBK1 (Homo sapiens, UniProt Q9UHD2); experiment: ADP-Glo Kinase Assay, inhibition activity on TBK1; type: biochemical
T1 construct: purchased Promega (Invitrogen is also named in the same bracket) V4158; PR8031B; V3991 (not assigned to the two kinases)
T1 sequence (Q9UHD2 1-729): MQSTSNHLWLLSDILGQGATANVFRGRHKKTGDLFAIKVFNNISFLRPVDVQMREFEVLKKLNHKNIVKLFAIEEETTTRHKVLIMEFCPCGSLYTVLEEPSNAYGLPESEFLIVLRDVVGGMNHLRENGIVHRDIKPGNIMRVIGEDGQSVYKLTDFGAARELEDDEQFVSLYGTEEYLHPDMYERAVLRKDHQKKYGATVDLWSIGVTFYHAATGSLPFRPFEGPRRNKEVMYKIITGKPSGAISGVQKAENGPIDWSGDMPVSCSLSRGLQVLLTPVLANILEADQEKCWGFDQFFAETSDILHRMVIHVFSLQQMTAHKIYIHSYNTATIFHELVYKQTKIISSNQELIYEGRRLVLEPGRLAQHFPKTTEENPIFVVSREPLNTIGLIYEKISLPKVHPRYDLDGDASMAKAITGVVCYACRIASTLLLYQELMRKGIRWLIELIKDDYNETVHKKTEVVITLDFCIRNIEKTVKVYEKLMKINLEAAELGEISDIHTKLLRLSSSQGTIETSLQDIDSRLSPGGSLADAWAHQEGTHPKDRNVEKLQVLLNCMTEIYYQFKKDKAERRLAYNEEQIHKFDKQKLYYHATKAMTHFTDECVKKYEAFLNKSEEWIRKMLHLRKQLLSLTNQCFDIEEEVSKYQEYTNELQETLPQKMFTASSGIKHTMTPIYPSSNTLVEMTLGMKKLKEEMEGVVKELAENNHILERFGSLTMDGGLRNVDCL
Procedure, shortened: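 In 40 mM Tris pH 7.5 with 20 mM MgCl2 and 0.1 mg/mL BSA, each enzyme (IKKε or TBK1 kinase system) was run according to the manufacturer's protocol. ADP formed was detected by ADP-Glo luminescence.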

IKKε = biological target: T2, IKKε (Homo sapiens, UniProt Q14164); experiment: ADP-Glo Kinase Assay, inhibition activity on IKKε; type: biochemical
T2 construct: purchased Promega and/or Invitrogen V4158; PR8031B; V3991 (not assigned to the two kinases)
T2 sequence (Q14164 1-716): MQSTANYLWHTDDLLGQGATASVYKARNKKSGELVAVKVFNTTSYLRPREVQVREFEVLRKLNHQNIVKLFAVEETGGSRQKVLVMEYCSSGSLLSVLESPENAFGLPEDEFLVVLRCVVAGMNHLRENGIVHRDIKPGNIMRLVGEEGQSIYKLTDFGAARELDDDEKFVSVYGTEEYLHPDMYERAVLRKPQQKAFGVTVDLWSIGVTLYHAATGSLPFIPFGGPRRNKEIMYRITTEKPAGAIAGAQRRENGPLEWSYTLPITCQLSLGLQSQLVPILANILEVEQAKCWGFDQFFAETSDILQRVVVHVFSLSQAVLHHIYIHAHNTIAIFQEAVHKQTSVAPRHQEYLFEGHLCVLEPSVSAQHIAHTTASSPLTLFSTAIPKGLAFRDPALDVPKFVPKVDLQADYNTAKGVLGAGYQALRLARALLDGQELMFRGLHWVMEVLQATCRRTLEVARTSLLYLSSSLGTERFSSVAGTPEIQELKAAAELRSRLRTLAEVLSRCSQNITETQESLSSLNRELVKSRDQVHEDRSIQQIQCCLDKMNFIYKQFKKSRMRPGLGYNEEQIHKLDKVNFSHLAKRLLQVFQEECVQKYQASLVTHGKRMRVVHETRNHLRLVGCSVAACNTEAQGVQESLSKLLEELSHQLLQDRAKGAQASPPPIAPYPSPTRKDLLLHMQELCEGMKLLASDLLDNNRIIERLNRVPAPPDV
Experimental: Inhibition activities on IKKϵ and TBK1 were evaluated using the compounds of Examples 1 to 250.
The inhibition activities on IKKϵ and TBK1 were measured by a luminometer, IKKϵ/TBK1 Kinase Enzyme System (Promega, Ca# V4158; Invitrogen, PR8031B, Promega, Ca# V3991) and ADP-Glo Kinase Assay using ADP-Glo™ Kinase Analysis Kit (Promega, Ca# V9101) and a kinase reaction buffer [40 mM Tris(pH 7.5), 20 mM MgCl2, 0.1 mg/mL BSA] in accordance with the manufacturer's protocol.

Structure (SMILES): COc1ccc(-c2cnc3[nH]cc(C4=CCN(C)CC4)c3c2)cc1OC [Example 2, 5-(3,4-Dimethoxyphenyl)-3-(1-methyl-1,2,3,6-tetrahydropyridin-4-yl)-1H-pyrrolo[2,3-b]pyridine]
- IC50 (TBK1): 9040 nM
- IC50 (IKKε): > 10000 nM

Structure (SMILES): CC1CC(c2c[nH]c3ncc(-c4ccc(CN5CCOCC5)s4)cc23)=CCN1C(=O)NC1CCCC1 (stereo not shown) [Example 104, N-cyclopentyl-6-methyl-4-(5-(5-(morpholinomethyl)thiophen-2-yl)-1H-pyrrolo[2,3-b]pyridin-3-yl)-5,6-dihydropyridine-1(2H)-carboxamide]
- IC50 (TBK1): 110 nM
- IC50 (IKKε): 190 nM

Structure (SMILES): CN1CCN(Cc2ccc(-c3cnc4[nH]cc(C5=CCN(C(=O)NC6CC6)CC5)c4c3)cc2)CC1 [Example 46, N-cyclopropyl-4-(5-(4-((4-methylpiperazin-1-yl)methyl)phenyl)-1H-pyrrolo[2,3-b]pyridin-3-yl)-5,6-dihydropyridine-1(2H)-carboxamide]
- IC50 (TBK1): 14 nM
- IC50 (IKKε): 25 nM

Structure (SMILES): CN1CCN(Cc2ccc(-c3cnc4[nH]cc(C5=CCN(C(=O)NC6COC6)CC5)c4c3)s2)CC1 [Example 79, 4-(5-(5-((4-Methylpiperazin-1-yl)methyl)thiophen-2-yl)-1H-pyrrolo[2,3-b]pyridin-3-yl)-N-(oxetan-3-yl)-5,6-dihydropyridine-1(2H)-carboxamide]
- IC50 (TBK1): 320 nM
- IC50 (IKKε): 28 nM

Structure (SMILES): CC(C)NC(=O)N1CC=C(c2c[nH]c3ncc(-c4ccc(CN5CCCC5)o4)cc23)CC1 [Example 27, N-isopropyl-4-(5-(5-(pyrrolidin-1-ylmethyl)furan-2-yl)-1H-pyrrolo[2,3-b]pyridin-3-yl)-5,6-dihydropyridine-1(2H)-carboxamide]
- IC50 (TBK1): 570 nM
- IC50 (IKKε): 1980 nM

Structure (SMILES): CC(C)NC(=O)N1CCC(c2c[nH]c3ncc(-c4ccc(CN5CCOCC5)s4)cc23)=CC1C (stereo not shown) [Example 87, N-isopropyl-2-methyl-4-(5-(5-(morpholinomethyl)thiophen-2-yl)-1H-pyrrolo[2,3-b]pyridin-3-yl)-5,6-dihydropyridine-1(2H)-carboxamide]
- IC50 (TBK1): 1 nM
- IC50 (IKKε): 1.5 nM

Structure (SMILES): COc1ccc(-c2cnc3[nH]cc(C4=CC(c5ccccc5)N(C(=O)NC(C)C)CC4)c3c2)cc1OC (stereo not shown) [Example 119, 4-(5-(3,4-Dimethoxyphenyl)-1H-pyrrolo[2,3-b]pyridin-3-yl)-N-isopropyl-2-phenyl-5,6-dihydropyridine-1(2H)-carboxamide]
- IC50 (TBK1): 5410 nM
- IC50 (IKKε): 3470 nM

Structure (SMILES): CCS(=O)(=O)c1cccc(-c2cnc3[nH]cc(C4=CCN(C(=O)NC5CCCC5)CC4)c3c2)c1 [Example 54, N-cyclopentyl-4-(5-(3-(ethylsulfonyl)phenyl)-1H-pyrrolo[2,3-b]pyridin-3-yl)-3,6-dihydropyridine-1(2H)-carboxamide]
- IC50 (TBK1): 32 nM
- IC50 (IKKε): 84 nM

Structure (SMILES): CC1C=C(c2c[nH]c3ncc(-c4ccc(CN5CCN(C)CC5)s4)cc23)CCN1C(=O)NC1CCC1 (stereo not shown) [Example 100, N-cyclobutyl-2-methyl-4-(5-(5-((4-methylpiperazin-1-yl)methyl)thiophen-2-yl)-1H-pyrrolo[2,3-b]pyridin-3-yl)-5,6-dihydropyridine-1(2H)-carboxamide]
- IC50 (TBK1): 5.6 nM
- IC50 (IKKε): 35 nM

Structure (SMILES): CCN1CCN(Cc2cccc(-c3cnc4[nH]cc(C5=CCN(C(=O)NC(C)C)CC5)c4c3)c2)CC1 [Example 24, 4-(5-(3-((4-Ethylpiperazin-1-yl)methyl)phenyl)-1H-pyrrolo[2,3-b]pyridin-3-yl)-N-isopropyl-3,6-dihydropyridine-1(2H)-carboxamide]
- IC50 (TBK1): 12 nM
- IC50 (IKKε): 41 nM

Structure (SMILES): COc1ccc(-c2cnc3[nH]cc(C4=CCN(C(=O)NC(C)C)CC4)c3c2)cc1OC [Example 18, 4-(5-(3,4-Dimethoxyphenyl)-1H-pyrrolo[2,3-b]pyridin-3-yl)-N-isopropyl-5,6-dihydropyridine-1(2H)-carboxamide]
- IC50 (TBK1): 2.5 nM
- IC50 (IKKε): 45 nM

Structure (SMILES): CC1C=C(c2c[nH]c3ncc(-c4ccc(CN5CCN(C)CC5)s4)cc23)CCN1C(=O)NC1CCCC1 (racemic) [Example 107, N-cyclopentyl-2-methyl-4-(5-(5-((4-methylpiperazin-1-yl)methyl)thiophen-2-yl)-1H-pyrrolo[2,3-b]pyridin-3-yl)-5,6-dihydropyridine-1(2H)-carboxamide]
- IC50 (TBK1): 2.7 nM
- IC50 (IKKε): 3.2 nM

Structure (SMILES): CCN1CC=C(c2c[nH]c3ncc(-c4ccc(CN5CCOCC5)s4)cc23)CC1 [Example 6, 4-((5-(3-(1-Ethyl-1,2,3,6-tetrahydropyridin-4-yl)-1H-pyrrolo[2,3-b]pyridin-5-yl)thiophen-2-yl)methyl)morpholine]
- IC50 (TBK1): 4080 nM
- IC50 (IKKε): 8900 nM

Structure (SMILES): O=C(c1cccs1)N1CC=C(c2c[nH]c3ncc(-c4ccc5[nH]ncc5c4)cc23)CC1 [Example 204, (4-(5-(1H-indazol-5-yl)-1H-pyrrolo[2,3-b]pyridin-3-yl)-5,6-dihydropyridin-1(2H)-yl)(thiophen-2-yl)methanone]
- IC50 (TBK1): 57 nM
- IC50 (IKKε): 280 nM

Structure (SMILES): CC(C)NC(=O)N1CC=C(c2c[nH]c3ncc(-c4ccc(CN5CCOCC5)cc4F)cc23)CC1 [Example 20, 4-(5-(2-Fluoro-4-(morpholinomethyl)phenyl)-1H-pyrrolo[2,3-b]pyridin-3-yl)-N-isopropyl-3,6-dihydropyridine-1(2H)-carboxamide]
- IC50 (TBK1): 32 nM
- IC50 (IKKε): 46 nM

Structure (SMILES): CC1C=C(c2c[nH]c3ncc(-c4ccc(CN5CCN(C)CC5)cc4)cc23)CCN1C(=O)NC1CC1 (stereo not shown) [Example 95, N-cyclopropyl-2-methyl-4-(5-(4-((4-methylpiperazin-1-yl)methyl)phenyl)-1H-pyrrolo[2,3-b]pyridin-3-yl)-5,6-dihydropyridine-1(2H)-carboxamide]
- IC50 (TBK1): 7.4 nM
- IC50 (IKKε): 14 nM

Structure (SMILES): CC(C)NC(=O)N1CC=C(c2c[nH]c3ncc(-c4cc(CN5CCOCC5)ccc4F)cc23)CC1 [Example 21, 4-(5-(2-Fluoro-5-(morpholinomethyl)phenyl)-1H-pyrrolo[2,3-b]pyridin-3-yl)-N-isopropyl-3,6-dihydropyridine-1(2H)-carboxamide]
- IC50 (TBK1): 71 nM
- IC50 (IKKε): 160 nM

Structure (SMILES): CC(C)NC(=O)N1CC=C(c2c[nH]c3ncc(-c4ccc(CN5CCN(C)CC5)s4)cc23)C(C)C1 (stereo not shown) [Example 125, N-isopropyl-5-methyl-4-(5-(5-((4-methylpiperazin-1-yl)methyl)thiophen-2-yl)-1H-pyrrolo[2,3-b]pyridin-3-yl)-5,6-dihydropyridine-1(2H)-carboxamide]
- IC50 (TBK1): 3.6 nM
- IC50 (IKKε): 27 nM

Structure (SMILES): CCCS(=O)(=O)c1ccc(-c2cnc3[nH]cc(C4=CCN(C(=O)NC5CCCC5)CC4)c3c2)cc1 [Example 55, N-cyclopentyl-4-(5-(4-(propylsulfonyl)phenyl)-1H-pyrrolo[2,3-b]pyridin-3-yl)-5,6-dihydropyridine-1(2H)-carboxamide]
- IC50 (TBK1): 51 nM
- IC50 (IKKε): 600 nM

Structure (SMILES): CCC1C=C(c2c[nH]c3ncc(-c4ccc(C(=O)N5CCN(C)CC5)cc4)cc23)CCN1C(=O)NC(C)C (stereo not shown) [Example 113, 6-Ethyl-N-isopropyl-4-(5-(4-(4-methylpiperazine-1-carbonyl)phenyl)-1H-pyrrolo[2,3-b]pyridin-3-yl)-3,6-dihydropyridine-1(2H)-carboxamide]
- IC50 (TBK1): 18 nM
- IC50 (IKKε): 46 nM
